Test results published in US12491207B2, “Article of manufacture comprising local anesthetic, buffer, and glycosaminoglycan in syringe with improved stability” (Vaneltix Pharma, Inc., priority 2017, dated 2025).
Counter-ions that a name gives are not always drawn.

Assay: Loss of lidocaine HCl on sterilization and storage in glass or plastic containers
Type: physicochemical
Method: This composition was packaged in 20-mL cyclic olefin polymer (COP) and polypropylene (PP) syringes; the polypropylene was not non-nucleated. Storage conditions were, as indicated below, either 25° C./60% relative humidity (RH) or 40° C./75% RH.
Testing points were as follows: at the initiation of the stability study, after 1 month, 2 months, 3 months, 6 months, and 12 months.
Additionally, the syringe parts (the plunger and the syringe body) were analyzed for leachables.

In the case of `CCN(CC)CC(=O)Nc1c(C)cccc1C` [lidocaine hydrochloride], the “loss of lidocaine hydrochloride after sterilization (FIG. 9)” value (from here on “loss of lidocaine hydrochloride”) (glass vials, 80 mM phosphate buffer) is reported as “small loss”, the “loss of lidocaine hydrochloride” value (glass vials, different phosphate buffer molarities except 80 mM) is reported as “no loss” and the “loss of lidocaine hydrochloride” value (plastic syringes, increasing with phosphate buffer molarity) is reported as “significant loss”.
